Broadly, the IC50 is the concentration that gives 50% inhibition.

Structures are written as SMILES. Converted amounts (≈) assume the structure as drawn. Read-outs that look alike come from different tables or passages of the source.

Assay [1] has as its target T1, LTD4 receptor (Cavia porcellus, UniProt Q2NNR5).
T1 construct: The membrane fraction was prepared from male guinea-pig lungs; from tissue; host or cells: male guinea-pig lung membranes
T1 sequence (Q2NNR5 1-340): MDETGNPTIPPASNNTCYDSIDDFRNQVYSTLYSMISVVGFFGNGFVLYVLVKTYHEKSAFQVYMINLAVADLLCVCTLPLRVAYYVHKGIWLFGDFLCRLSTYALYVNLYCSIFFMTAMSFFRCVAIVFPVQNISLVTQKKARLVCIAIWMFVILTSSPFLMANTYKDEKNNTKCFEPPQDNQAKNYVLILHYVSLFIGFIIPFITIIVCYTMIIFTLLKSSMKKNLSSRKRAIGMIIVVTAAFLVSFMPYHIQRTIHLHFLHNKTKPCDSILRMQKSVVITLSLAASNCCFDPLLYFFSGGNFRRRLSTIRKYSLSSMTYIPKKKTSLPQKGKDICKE
As to the kind of experiment: LTD4 receptor binding study. The following applies: 3H-LTD4, guinea-pig lung membranes; for IC50: read-out: Inh. of LTD4 rec. binding, IC50. As for the experimental part:
LTD4 Receptor Binding Study
This study was performed according to the method of Burns and coworkers (Burns R. F. et al.: Life Sci. 33, 645 (1983)). The membrane fraction was prepared from male guinea-pig lungs, and 4 mg of this fraction were incubated with 0.4 nM ^3 H-LTD4 for 60 min at 25° C. in 100 μl of the incubated mixture. The nonspecific binding was determined in the presence of 0.1 μM LTD4. The filtration of the membranes, washing, and radioactivity measurement were as above.

The test system of assay [2] is peroxidation of lipids from the hepatic cells membranes. As to the kind of experiment: Antioxidant effect in vitro. The format is biochemical. The following applies: at 100 μg. The text has this: Antioxidant Effect in vitro
The end-product, malonic dialdehyde, was transformed to coloured complex with thiobarbituric acid and determined spectrophotometrically. The antioxidant effect was expressed in % of peroxidation inhibition in the presence of the compound tested in comparison to a control sample.

Assay [3] concerns rats. The assay is described as follows: Inhibition of carrageenan-induced pleuritis in rats. The format is in vivo. The conditions noted are these: Rattus norvegicus, po, 4 h. The protocol:
Inhibition of Carrageenan-induced Pleuritis in Rats
(Hidaka T. J.: Pharm. Pharmacol. 38, 242 (1986) 1 ml of 0.5% carrageenan solution in saline was administered intrapleurally to experimental animals under mild ether anesthesia. Test drugs were administered in single oral dose 1 h before carrageenan injection, 4 h following the carrageenan application the rats were killed and exudate was withdrawn from opened pleural cavity. The volume of exudate, its cellularity and total cell number were determined.

Assay [4] deals with LTB4 receptor (Cavia porcellus, UniProt H0VYV8). As to the kind of experiment: LTB4 receptor binding study. The conditions noted are these: 3H-LTB4, guinea-pig spleen membranes; for IC50: read-out: Inh. of LTB4 rec. binding, IC50; for inhibition at 20 µM: read-out: Inh. of LTB4 rec. binding, %. As for the experimental part: LTB4 Receptor Binding Study
Sequence of LTB4 receptor (H0VYV8 1-348): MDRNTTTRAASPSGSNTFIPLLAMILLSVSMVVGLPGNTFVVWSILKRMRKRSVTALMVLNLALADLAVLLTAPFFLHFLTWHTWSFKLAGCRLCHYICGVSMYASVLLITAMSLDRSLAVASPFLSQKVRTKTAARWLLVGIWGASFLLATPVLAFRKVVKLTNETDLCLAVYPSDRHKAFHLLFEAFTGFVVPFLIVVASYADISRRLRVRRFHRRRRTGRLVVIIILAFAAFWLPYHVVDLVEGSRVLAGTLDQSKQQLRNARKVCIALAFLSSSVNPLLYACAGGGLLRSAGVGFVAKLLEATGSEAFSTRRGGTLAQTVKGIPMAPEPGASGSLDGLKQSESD
A slightly modified method of Cheng and coworkers (Cheng J. B. et al.: J. Pharm. Expl. Ther. 236, 126 (1986)) was used. The membrane fraction was prepared from male guinea-pig spleen; 2 mg of membranes were incubated with 0.3 nM ^3 H-LTB4 at 25° C. for 30 min in 100 μl of the incubated mixture. The nonspecific binding was determined in the presence of 0.1 μM LTB4. The membranes were filtered though Whatman GF/C paper and washed triply with buffer. The radioactivity was measured by liquid scintillation spectrometry, and the specific binding of ^3 H-LTB4 to the receptor was determined.

Assay [5] relates to male mice. As to the kind of experiment: Inhibition of arachidonic acid-induced ear inflammation in mice. The format is in vivo. The following applies: Mus musculus, po, 1 h. The protocol: Inhibition of Arachidonic Acid-induced Ear Inflammation in Mice (Opas E. E. et al.: J. Invest. Dermatol. 84, 253 (1985) Ear inflammation was induced in male mice by 20 μl of arachidonic acid dissolved in acetone (concentration 100 mg/ml). The mice were sacrificed 1 h after application of arachidonic acid and the ears were cut off by standard means. The other, vehicle-treated ear of the same animal served as a control. The degree of ear hyperemia and the weight of ear lobes were evaluated. Test compounds were administered orally 1 h before the induction of inflammation.

The test system of assay [6] is Wistar-Han rats. The assay is described as follows: Inhibition of carrageenan edema. The assay is classed as in vivo. The conditions noted are these: Rattus norvegicus, read-out: CE: inhibition of carrageenan-induced edema, % of inh.
Assay [7] deals with LTB4 production in rat polymorphonuclear cells. As to the kind of experiment: Ex vivo inhibition of LTB4 production (LTB4 biosynthesis). The format is cell-based. The conditions noted are these: for IC50: Rattus norvegicus, read-out: Inh. of LTB4 biosynth., IC50; for Inh. of LTB4 biosynth., %: at 30 μg (%/μg). As for the experimental part:
Ex vivo Inhibition of LTB4 Production The production of LTB4 was determined in rat polymorphonuclear cells from pleural exudate elicited by heat-activated rat serum (Palmer R. M. J., Salmon J. A.: Immunology 50, 65 (1983)). The cells were stimulated with the Ca ionophore A 23187 (Sigma) and incubated with various concentrations of the drugs tested. The sample containing only buffer was used for the determination of unaffected biosynthesis; the complete inhibition was measured in a sample with 100 μg of NDGA in 1 ml. LTB4 was determined in supernatant using a commercial RIA kit (Amersham).

Setting [8] is: dose 100 mg/kg, oral, values with mark n: p > 0.05, read-out: Experimental pleuritis, A: volume of exudate in pleural cavity, % of inh.
The mark [9] stands for this setting: dose 100 mg/kg, oral, values with mark n: p > 0.05, read-out: Experimental pleuritis, B: number of cells, % of inh.
[10] abbreviates: dose 100 mg/kg, oral, values with mark n: p > 0.05, read-out: Experimental pleuritis, C: cellularity in a volume unit, % of inh.
Setting [11] is: values with mark n: p > 0.05, read-out: Ear edema, D: edema of ear lobe, % of inh.
Where [12] appears, read: values with mark n: p > 0.05, read-out: Ear edema, E: hyperemia of ear lobe, % of inh.
[13] abbreviates: read-out: Inh. of LTD4 rec. binding, %.

Consider `O=C(O)Cc1ccccc1Sc1cccc(OCc2ccc3cc(Cl)ccc3n2)c1` [Compound 31, 2-(3-(6-Chloroquinoline-2-ylmethoxy)phenylsulfanyl)phenylacetic Acid], for which the IC50 was 1.15 µM in assay [1], 58.9 µM in assay [4] and 0.46 µg/mL (≈ 1.06 µM) in assay [7]. Besides, the inhibition at 20 µM in assay [1] (at 20 μM, read-out: Inh. of LTD4 rec. binding, %) was found to be 83%; in assay [4] it was 40%. For the same molecule, in assay [2], the “Antiox. effect, % of peroxidation inhibition” value was 4%. The inhibition in vivo at 100 mg/kg was 24% in assay [3] (setting [8]), 75% in assay [3] (setting [9]), 39% in assay [3] (setting [10]) and 13% in assay [6] (dose 100 mg/kg). Besides, the values for the inhibition in vivo at 200 mg/kg in assay [5] (setting [11]) and in assay [5] (setting [12]) were 16% and 11%, respectively. The “Inh. of LTB4 biosynth., %” value in assay [7] was 100%.

As to `O=C(O)Cc1ccccc1Sc1ccc(OCCCN2CCN(Cc3ccc(Cl)cc3)CC2)cc1` [Compound 27], in assay [1] (setting [13]), the inhibition at 100 µM is 22%. The “Antiox. effect, % of peroxidation inhibition” value in assay [2] was found to be 20%. Besides, the inhibition in vivo at 100 mg/kg in assay [3] (setting [8]) was 8%; in assay [3] (setting [9]), 61%; in assay [3] (setting [10]) it was 47%; in assay [6] (dose 100 mg/kg), 13%. For the same molecule, the inhibition at 20 µM in assay [4] worked out at 12%. Besides, the inhibition in vivo at 200 mg/kg in assay [5] (setting [11]) amounted to 7%; in assay [5] (setting [12]), 22%. Also, the IC50 in assay [7] stood at 9.2 µg/mL (≈ 18 µM). Moreover, the “Inh. of LTB4 biosynth., %” value in assay [7] is 89%.

Consider `CCCc1c(OCCCCOc2ccc(Sc3ccccc3C(=O)O)cc2)ccc(C(C)=O)c1O` [Compound 7], for which the results for the half-inhibitory concentration (IC50) in assay [1] and in assay [4] were 13.6 µM and 12 µM, respectively. In addition, the inhibition at 100 µM in assay [1] (setting [13]) was 100%. Besides, the “Antiox. effect, % of peroxidation inhibition” value in assay [2] is 16%. Besides, the inhibition in vivo at 100 mg/kg worked out at 14% in assay [3] (setting [8]), 35% in assay [3] (setting [9]), 26% in assay [3] (setting [10]) and 41% in assay [6] (dose 100 mg/kg). Further, the inhibition at 20 µM in assay [4] amounted to 68%. Moreover, the inhibition in vivo at 200 mg/kg in assay [5] (setting [11]) was determined as 16%; in assay [5] (setting [12]), 5%. For the same molecule, the “Inh. of LTB4 biosynth., %” value in assay [7] is recorded as 100%.

`CCCc1c(OCCCOc2ccc(Sc3ccccc3C(=O)O)cc2)ccc(C(C)=O)c1O` [Compound 4]: the IC50 in assay [1] was found to be 10.4 µM; in assay [4], 13 µM. Besides, in assay [1] (setting [13]), the inhibition at 100 µM was 100%. The “Antiox. effect, % of peroxidation inhibition” value in assay [2] is given as 34%. Besides, the inhibition in vivo at 100 mg/kg worked out at 10% in assay [3] (read-out: Experimental pleuritis, A: volume of exudate in pleural cavity, % of inh.); 35% in assay [3] (read-out: Experimental pleuritis, B: number of cells, % of inh.); 30% in assay [3] (read-out: Experimental pleuritis, C: cellularity in a volume unit, % of inh.); 35% in assay [6]. Further, the inhibition at 20 µM in assay [4] was found to be 47%. In addition, the inhibition in vivo at 200 mg/kg in assay [5] (setting [11]) is 6%; in assay [5] (setting [12]), 2%. Also, the “Inh. of LTB4 biosynth., %” value in assay [7] was determined as 100%.

Take `CCCc1c(OCCCOc2cccc(Sc3ccccc3C(=O)O)c2)ccc(C(C)=O)c1O` [Compound 6, 2-(3-(3-(4-Acetyl-3-hydroxy-2-propylphenoxy)propoxy)phenylsulfanyl)benzoic Acid]: the IC50 in assay [1] was 4.1 µM; in assay [4], 20.6 µM. Moreover, the inhibition at 100 µM in assay [1] (setting [13]) is 100%. Besides, the “Antiox. effect, % of peroxidation inhibition” value in assay [2] amounted to 19%. Besides, the inhibition in vivo at 100 mg/kg in assay [3] (setting [8]) came out at 26%; in assay [3] (setting [9]), 29%; in assay [3] (setting [10]), 6%; in assay [6] (dose 100 mg/kg) it was 22%. The inhibition at 20 µM in assay [4] stood at 50%. In addition, the inhibition in vivo at 200 mg/kg in assay [5] (setting [11]) was determined as 9%; in assay [5] (setting [12]) it was 8%. In assay [7], the “Inh. of LTB4 biosynth., %” value was 73%.

Take `O=C(O)Cc1ccccc1Sc1ccc(OCc2ccc3ccccc3n2)cc1` [Compound 29, 2-(4-(Quinoline-2-ylmethoxy)phenylsulfanyl)phenylacetic Acid]: the IC50 was 0.6 µM in assay [1], 24 µM in assay [4] and 28 µg/mL (≈ 69.7 µM) in assay [7]. The inhibition at 100 µM in assay [1] (setting [13]) is 95%. In assay [2], the “Antiox. effect, % of peroxidation inhibition” value is 0%. Further, the inhibition in vivo at 100 mg/kg was found to be 3% in assay [3] (setting [8]), 27% in assay [3] (setting [9]), 25% in assay [3] (setting [10]) and 52% in assay [6] (dose 100 mg/kg). Besides, the inhibition at 20 µM in assay [4] came to 50%. In addition, the inhibition in vivo at 200 mg/kg in assay [5] (setting [11]) amounted to 2%; in assay [5] (setting [12]) it was 22%. In addition, the “Inh. of LTB4 biosynth., %” value in assay [7] is given as 44%.

As to `O=C(O)c1ccc(Sc2cccc(OCc3ccc4ccccc4n3)c2)cc1` [Compound 18], the IC50 in assay [1] was 1.6 µM; in assay [4], 92.9 µM; in assay [7], 0.02 µg/mL (≈ 0.0516 µM). For the same molecule, the inhibition at 100 µM in assay [1] (setting [13]) amounted to 100%. The “Antiox. effect, % of peroxidation inhibition” value in assay [2] was 16%. Further, the inhibition in vivo at 100 mg/kg in assay [3] (setting [8]) came to 28%; in assay [3] (setting [9]), 29%; in assay [3] (setting [10]), 1%; in assay [6] (dose 100 mg/kg), 10%. Further, the inhibition at 20 µM in assay [4] is 24%. The inhibition in vivo at 200 mg/kg stood at 13% in assay [5] (setting [11]) and 8% in assay [5] (setting [12]). Moreover, the “Inh. of LTB4 biosynth., %” value in assay [7] was 100%.

Regarding `CCCc1c(OCCCCOc2cccc(Sc3ccc(C(=O)O)cc3[N+](=O)[O-])c2)ccc(C(C)=O)c1O` [Compound 9, 4-(3-(4-(4-Acetyl-3-hydroxy-2-propylphenoxy)butoxy)phenylsulfanyl)-3-nitrobenzoic Acid], the IC50 is 48.4 µM in assay [1] and 15 µM in assay [4]. For the same molecule, in assay [1] (setting [13]), the inhibition at 100 µM is 53%. In addition, the “Antiox. effect, % of peroxidation inhibition” value in assay [2] stood at 40%. In addition, the inhibition in vivo at 100 mg/kg turned out to be 34% in assay [3] (setting [8]), 54% in assay [3] (setting [9]), 30% in assay [3] (setting [10]) and 19% in assay [6] (dose 100 mg/kg). For the same molecule, the inhibition at 20 µM in assay [4] came to 65%. The inhibition in vivo at 200 mg/kg in assay [5] (setting [11]) is 14%; in assay [5] (setting [12]) it was 2%. Further, in assay [7], the “Inh. of LTB4 biosynth., %” value was determined as 100%.
